In US9994862B2, “Rice resistant to HPPD and ACCase inhibiting herbicides” (priority 2011, dated 2018):
Entries after “also recorded” stand apart in the source; their conditions may differ.

What was measured:
line PL1214418M2-80048 = assay: Herbicide tolerance of the combined HPPD and ACCase line; design: species or system rice; conditions: in vivo
From the text: An early maturing group of plants was harvested as early as possible and the seeds planted in the greenhouse to help quickly advance to the F4 generation. Selections on the F3 plants were made by molecular markers flanking the HPPD tolerance mutation and native tolerance the ACCase functional mutation. Homozygous plants for all the selected genomic regions were advanced to the F5 generation. The F5 seed was confirmed to carry tolerance to ACCase herbicides and the HPPD herbicide mesotrione. Among the F5 lines PL1214418M2-80048 was selected due to a high seed yield and being homozygous for the ACCase tolerance mutation at position G2096S, the HPPD tolerance mutation, and the HPPD tolerance native gene. Seed from the line PL1214418M2-80048 was deposited at the ATCC and given a deposit number PTA-121362 (see Table 8).
Individuals with tolerance to both mesotrione and ACCase herbicides were selfed to produce F3 families and further selected for other important agronomic characters. The F3 lines were selfed and purified to derive a new line or variety with dual resistance to mesotrione and ACCase herbicides. Such lines are highly valuable as the use of both herbicides provides more complete and broad-spectrum weed control. […]

[1] = system: mutant line ML0831266-03093; assay: Mesotrione tolerance trials / herbicide bioassay; type: in vivo, rice
Method: After the initial screening of the “mutation population,” the lines with no damage were selected and tested in additional experiments using different rates of the herbicide. In particular, a rate response experiment was conducted in which two different rates of mesotrione were applied pre-emergence, plus an additional foliar application was also applied. […] Progeny of this designated ML0831266-03093 are maintained as a new line carrying resistance to mesotrione herbicide. Seeds are deposited under ATCC PTA-13620. The line (ML0831266-03093) is a source of resistance that is backcrossed into proprietary rice lines or used directly in breeding to develop new proprietary rice lines. The developed lines are a source of herbicide resistance for use in development of new hybrids that offer an alternative mode of action to control weeds in rice. Affording this opportunity to growers is of great value both in providing high yields and in extending the useful life of available weed control technologies. These herbicide resistant traits can be tracked through the simple application of herbicides to growing plants.
Selection of material inheriting mesotrione tolerance is accomplished by a simple herbicide bioassay. A high rate of mesotrione (at least 420 gm ai/ha) is applied allowing differentiation of heterozygous individuals from homozygous individuals and the tolerance level of the […] line from the inherent tolerance level in the background of some types of rice. In one example a rate of 105 gm ai/ha is applied followed three weeks later by a second application of 630 gm ai/ha. In another example a rate of 420 gm ai/ha is applied in a single application. Yet another example entails applying the herbicide at a rate of 630 gm ai/ha. Herbicide applications are done at the three to four leaf stage of seedling growth. The ideal situation is to have also planted near or within the plants to be selected a set of plants from the original mutant mesotrione tolerant donor line ML0831266-03093, (FIG. 18A) a row of plants of the wild-type of the […] line, P1003 (FIG. 18B), and a row of the line involved as the other parent in the cross (FIG. 18C). These control lines allow easy differentiation for inheritance of the tolerance provided by the ML0831266-03093 mutant line through comparison of the response in the plants to be selected with the control lines. Only plants that live and are relatively healthy will have inherited and be homozygous for the tolerance level provided by the ML0831266-03093 mutant line (FIG. 18A).
The mutant line is planted in rows or alternatively whole plots are planted and rows of the unmutated line (P1003) and other types of rice or whole plots are planted. Mesotrione is applied pre-emergence or alternatively it is applied post-emergence at the three to four leaf stage of the rice plants. Various rates of mesotrione are applied pre-emergence, pre-emergence followed by post-emergent, or post-emergent with a single or sequential application. Post-emergent applications are applied at the 3-4 leaf stage of the rice.
Seedlings of size 3 to 4 leaves are sprayed with mesotrione herbicide. In one set of 89 plants mesotrione is first applied at 105 gm ai/ha killing 23 plants. Both the mutant line control ML0831266-03093 and the unmutated line P1003 survived the herbicide application while the unmutated line R0146 was killed. […]

line PL1214418M2-73009 = assay: Mesotrione trait tolerance trial; type: in vivo, rice
Method: Two trials were conducted to measure recovery of tolerance to both ACCase and HPPD herbicides in the new line PL1214418M2-73009. Recovery of tolerance in the line combining the two traits will illustrate that the traits are heritable and can be used to produce new varieties and hybrids carrying herbicide resistance. These trials are important as often times it is difficult to recover complex QTLs for quantitative traits or in some cases a traits response is dependent upon the genetic background. In the first trail the lines resistance to mesotrione (HPPD herbicide) was evaluated by planting line PL1214418M2-73009, the HPPD resistant line ML0831266-03093 and wild-type rice line P1003 and R0146 in plots (5 feet×10 feet). […]
During the breeding process to develop new lines (PL1214418M2-80048 and PL1214418M2-73009) with resistance/tolerance to HPPD and ACCase herbicides, two other lines were also investigated to determine the contribution of the HPPD tolerance mutation and the HPPD tolerance native gene. […] The tolerance effect of each gene was measured by growing the lines in single rows including the newly developed line PL1214418M2-73009 that carries both the HPPD tolerance from the mutation and the non-induced tolerance, the HPPD tolerant line ML0831266-0309, and the non-induced parent line P1003. […]

SMILES: CS(=O)(=O)c1ccc(C(=O)C2C(=O)CCCC2=O)c([N+](=O)[O-])c1 [mesotrione]
- tolerance to the herbicide (line PL1214418M2-80048): tolerance
- tolerance to mesotrione ([1]; 420 gm ai/ha): tolerant
- tolerance to mesotrione in the presence of common rice weeds ([1]; applied rates of mesotrione, FIG. 6): completely tolerant
- survival after mesotrione ([1]; higher rates): survives
- survival after mesotrione ([1]; low rate 105 gm ai/ha): survived
- response of the rice to mesotrione ([1]; one application at 105 gai/ha followed by a second application of 630 gai/ha): tolerant; also recorded: little damage
- tolerance to mesotrione compared with the original HPPD tolerant line ML0831266-03093 (line PL1214418M2-73009; 0.5x to 4x of the labeled rate 210 gmai/ha): equivalent tolerance; also recorded: the same response
- tolerance to mesotrione (line PL1214418M2-73009; in vivo): tolerance
